Experimental data reported in US9463254B2, “Molecular design toward dual-modality probes for radioisotope-based imaging (PET or SPECT) and MRI” (Board of Regents, The University of Texas System, priority 2013, dated 2016).
One block for each compound: values may come before it.

Columns and labels:
[1] = et al., cited from earlier work; for thermodynamic stability logK: Caravan, 1999
[2] = MRI imaging and relaxivity measurements at 7.0 T; type: physicochemical
Experimental: The T1-weighted MR images of samples in 0.5 mL microfuge tubes were collected using Agilent®/Varian™ 7.0 T ([…], 5 cm diameter volume coil) VNMRj's spin-echo sequence (SEMS) sequence. For imaging, the following parameters were used: TR=200 ms; effective echo time (TE)=11.5 ms; FOV 45×45 mm^2, data matrix=256×256, averaging=2, slice=1 mm, steady-state scans=5, single slice. The T1-maps of the samples at […] was determined from a series of multi-TR (0.005 s to 10 s) saturation-recovery spin-echo sequence (SEMS with minimum TE (11.5 ms); FOV 45×45 mm^2; matrix=128×128; averaging=5, steady state scans=5), fitted and calculated using the ImageJ software. All the fits for T1 values used to calculate the longitudinal relaxivity, r1, had fitting coefficients, R^2≧0.99. Three trials were performed. […] Such changes are well known that T1 relaxivity typically decreases with increasing field strength (Caravan, et al., 1999).

[3] = 20 MHz, 39° C.; cited from earlier work
[4] = Relaxivity measurements (T1 relaxivity, Maran Ultra relaxometer); type: physicochemical; conditions: 20 MHz, 25° C., Millipore water
Experimental: The T1 values were recorded at […], 25° C. by using a Maran Ultra relaxometer (Oxford Instruments, UK). Longitudinal relaxation times were measured by using the inversion-recovery pulse sequence (180°-t-90°). The T1 relaxivities were determined by the linear regression analysis of the water proton relaxation rates in solutions ranging in concentration from 0.005 to 12 mM, in Millipore water in triplicate. At 20 MHz, 25° C., the relaxivity of Gd^3+-L was calculated to be 103.5±15 mM^−1 s^−1. Thus, each Gd in the complex accounts for relaxivity of 17.25 mM^−1 s^−1, while under the same conditions, the relaxivity of Gd(DOTA) complex is 3.5 mM^−1 s^−1. The relaxivity value of Gd^3+-L is approximately 400% higher than that of Gd(DOTA). This may be attributed to its higher molecular weight (larger size) and consequently longer rotational correlation time (tR). At ambient conditions (37° C.), the relaxivity value of Gd^3+-L remains unchanged. The measurement of the relaxivity value of Gd^3+-L in rat serum at 25° C. gives an enhanced relaxivity value of 145.5±9.2 mM^−1 s^−1.

Compound: O=C([O-])CN1CCN(CC(=O)[O-])CCN(CC(=O)[O-])CC1.[Ga+3] [Ga-NOTA]
thermodynamic stability logK [1]: 31.0

Compound: O=C([O-])CN(CCN(CC(=O)[O-])CC(=O)O)CCN(CC(=O)[O-])CC(=O)O.[Gd+3] [Gd-DTPA]
Log K compared with that of Gd-NOTA complex ([1]; Reichert, 1996): about eight orders of magnitude higher

Compound: O=C([O-])CN1CCN(CC(=O)[O-])CCN(CC(=O)[O-])CC1.[Gd+3] [Gd-NOTA]
thermodynamic stability logK [1]: 14.3

r1 (longitudinal relaxivity) of the comparator [2]: 4.1 mM^−1 S^1
Compound: CNC[C@H](O)[C@@H](O)[C@H](O)[C@H](O)CO.CNC[C@H](O)[C@@H](O)[C@H](O)[C@H](O)CO.O=C([O-])CN(CCN(CC(=O)[O-])CC(=O)O)CCN(CC(=O)[O-])CC(=O)O.[Gd+3] [magnevist]

Compound: Gadomer-17
ionic relaxivity [3]: 17.3 mM⁻¹ s⁻¹

Compound: gadolinium-1,4,7,10-tetrakis(carboxymethyl) cyclododecane [Gd(DOTA)]
relaxivity [4]: 3.5 mM⁻¹ s⁻¹
thermodynamic stability logK [1]: 24.7
